What was measured:
[1] = biological target: T1, Tyrosine-protein kinase JAK2 (Homo sapiens, UniProt O60674); test: Binding affinity to wild type JAK2 JH2 pseudokinase domain (unknown origin) expressed in Sf9 cells and measured upto 30 mins by competitive fluorescence polarization assay
[2] = biological target: T1, Tyrosine-protein kinase JAK2; test: Binding affinity to wild type JAK2 JH2 pseudokinase domain (unknown origin) expressed in Sf9 cells at 50 uM and measured upto 30 mins competitive fluorescence polarization assay
in vitro = test: in vitro; design: dose or concentration left out as unconfirmed; conditions: PAMPA, pH 7.4
Description: Permeability of compound in PBS buffer at pH 7.4 at 500 mM incubated for 18 hrs by UV plate reader based PAMPA assay

[3] = Binding affinity to wild type JAK2 JH1 catalytic domain (unknown origin) expressed in Sf9 cells and measured upto 30 mins by competitive fluorescence polarization assay; design: species or system Homo sapiens
[4] = biological target: Tyrosine-protein kinase JAK2 (Homo sapiens, UniProt O60674, V617F); test: Binding affinity to wild type JAK2 JH2 pseudokinase domain (unknown origin) V617F mutant expressed in Sf9 cells and measured upto 30 mins by competitive fluorescence polarization assay
Sequence of Tyrosine-protein kinase JAK2 (Homo sapiens, UniProt O60674, V617F) (O60674 whole entry V617F, the tested form may be a part): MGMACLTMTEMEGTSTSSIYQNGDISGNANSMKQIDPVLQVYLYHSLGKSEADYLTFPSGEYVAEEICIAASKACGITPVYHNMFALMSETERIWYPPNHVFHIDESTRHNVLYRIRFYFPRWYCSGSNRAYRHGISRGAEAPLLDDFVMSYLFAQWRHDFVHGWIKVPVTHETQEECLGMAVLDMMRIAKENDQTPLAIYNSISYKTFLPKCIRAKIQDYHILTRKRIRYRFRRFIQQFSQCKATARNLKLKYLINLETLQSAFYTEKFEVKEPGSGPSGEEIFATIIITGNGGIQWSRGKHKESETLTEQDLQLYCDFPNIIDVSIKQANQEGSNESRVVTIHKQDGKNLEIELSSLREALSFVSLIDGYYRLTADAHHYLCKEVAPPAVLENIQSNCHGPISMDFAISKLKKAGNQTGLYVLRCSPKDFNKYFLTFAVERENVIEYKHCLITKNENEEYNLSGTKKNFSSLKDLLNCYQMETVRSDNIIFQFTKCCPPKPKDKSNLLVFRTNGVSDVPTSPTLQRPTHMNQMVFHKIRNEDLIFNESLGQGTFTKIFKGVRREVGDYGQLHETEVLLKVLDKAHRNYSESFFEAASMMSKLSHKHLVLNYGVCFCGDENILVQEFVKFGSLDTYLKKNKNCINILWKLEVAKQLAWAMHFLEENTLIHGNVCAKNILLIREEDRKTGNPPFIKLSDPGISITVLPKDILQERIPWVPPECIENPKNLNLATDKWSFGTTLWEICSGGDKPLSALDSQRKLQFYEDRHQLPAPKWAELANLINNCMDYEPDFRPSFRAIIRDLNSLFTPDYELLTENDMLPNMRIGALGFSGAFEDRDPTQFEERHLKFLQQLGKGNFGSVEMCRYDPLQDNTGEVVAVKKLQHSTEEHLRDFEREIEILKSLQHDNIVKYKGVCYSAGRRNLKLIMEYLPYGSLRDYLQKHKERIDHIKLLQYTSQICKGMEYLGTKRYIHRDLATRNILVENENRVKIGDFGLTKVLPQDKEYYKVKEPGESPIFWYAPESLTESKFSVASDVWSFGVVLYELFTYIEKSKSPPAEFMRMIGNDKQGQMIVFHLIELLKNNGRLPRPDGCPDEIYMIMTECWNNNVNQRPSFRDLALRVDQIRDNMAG

T1 sequence (O60674 whole entry, the tested form may be a part): as the sequence (O60674 whole entry V617F, the tested form may be a part) above, with F617V counted along it

Row | SMILES | Kd [1] [nM] | Activity [2] [%] | also measured
1 | Nc1nc(Oc2ccc(NC(=O)CCCC(=O)O)cc2)c2cc[nH]c2n1 |  | 27 | 
2 | Nc1nc(Oc2ccc(NC(=O)N[C@H](Cc3ccccc3)C(=O)O)cc2)c2cc[nH]c2n1 | 9900 |  | 
3 | O=C(N[C@H](CO)[C@H](O)c1ccc([N+](=O)[O-])cc1)C(Cl)Cl [CHLORAMPHENICOL] |  |  | Papp at 18 h (in vitro): 4.53 ×10⁻⁶ cm/s
4 | Nc1nc(Oc2ccc(NC(=O)N[C@@H](CCc3ccccc3)C(=O)O)cc2)c2cc[nH]c2n1 | 327 |  | Kd [3]: 36100 nM; Kd [4]: 179 nM
5 | Nc1nc(Oc2ccc(NC(=O)N[C@@H](CCCc3ccccc3)C(=O)O)cc2)c2cc[nH]c2n1 | 587 |  | 
6 | Nc1nc(-c2ccc(S(=O)(=O)CCC(=O)O)cc2)c2cc[nH]c2n1 |  | 4 | 

Continued, in another order:

Row | Kd [1] [nM] | Activity [2] [%] | SMILES | also measured
7 | 2220 |  | Nc1nc(Oc2ccc(NC(=O)N[C@@H](Cc3ccccc3)C(=O)O)cc2)c2cc[nH]c2n1 | 
8 |  | 18 | Nc1nc(Oc2ccc(NS(=O)(=O)CCC(=O)O)cc2)c2cc[nH]c2n1 | 
9 |  | 46 | Nc1nc(Oc2ccc(NC(=O)N[C@H](CCc3ccccc3)C(=O)O)cc2)c2cc[nH]c2n1 | 
10 | 18800 |  | Nc1nc(Oc2ccc(NC(=O)CCC(=O)O)cc2)c2cc[nH]c2n1 | 
11 |  | 30 | Nc1nc(Oc2ccc(NC(=O)NCCC(=O)O)cc2)c2cc[nH]c2n1 | 
12 | 590 |  | Nc1nc(Oc2ccc(NC(=O)N[C@@H](COCc3ccccc3)C(=O)O)cc2)c2cc[nH]c2n1 | 

Source: ChEMBL document CHEMBL5131519, “Conversion of a False Virtual Screen Hit into Selective JAK2 JH2 Domain Binders Using Convergent Design Strategies” (ACS Med Chem Lett, 2022)
